Reference: PubChem BioAssay AID248 (DTP/NCI, 2004)
Toxic doses and inconclusive results are not listed. Cut-off read from the data, not from the text of the source: active = T/C of 150% or more; inactive = T/C below 125%.

Test system: L1210 leukemia ip in BDF1 mice, survival T/C
Test: NCI In Vivo Anticancer Drug Screen. Data for tumor model L1210 Leukemia (intraperitoneal) in B6D2F1 (BDF1) mice
Conditions: endpoint: mean survival time, higher = longer survival
How it was run: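 Tumor was transplanted into mice, which were then dosed with test compound or vehicle alone. Survival was recorded for each group, and the treated figure was expressed relative to the control figure.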

[1] = dose: 100.0 mg/kg/injection, schedule: Q01DX001 (ip), vehicle: carboxymethylcellulose (CMC)
[2] = dose: 200.0 mg/kg/injection, schedule: Q01DX001 (ip), vehicle: carboxymethylcellulose (CMC)
[3] = dose: 400.0 mg/kg/injection, schedule: Q01DX001 (ip), vehicle: carboxymethylcellulose (CMC)
[4] = dose: 100.0 mg/kg/injection, schedule: Q01DX009 (ip), vehicle: Klucel (hydroxypropylcellulose) (HPC)
[5] = dose: 200.0 mg/kg/injection, schedule: Q01DX009 (ip), vehicle: Klucel (hydroxypropylcellulose) (HPC)
[6] = dose: 100.0 mg/kg/injection, schedule: Q04DX003 (ip), vehicle: saline
[7] = dose: 200.0 mg/kg/injection, schedule: Q04DX003 (ip), vehicle: saline

Measured: T/C

CN=C(NC)c1ccc(NC(=O)/C=C\c2ccc(C(=O)Nc3ccc(C(=NC)NC)cc3)cc2)cc1
active: dose: 3.75 mg/kg/injection, schedule: Q01DX Z (ip), vehicle: saline 248 % of control | dose: 4.0 mg/kg/injection, schedule: Q01DX Z (ip), vehicle: saline 209 % of control | dose: 4.0 mg/kg/injection, schedule: Q01DX Z (sc), vehicle: saline 164 % of control | dose: 16.0 mg/kg/injection, schedule: Q02DX004 (im), vehicle: saline 191 % of control | dose: 32.0 mg/kg/injection, schedule: Q01DX004 (im), vehicle: saline 161 % of control
inactive: dose: 0.23 mg/kg/injection, schedule: Q01DX Z (ip), vehicle: saline 90 % of control | dose: 0.47 mg/kg/injection, schedule: Q01DX Z (ip), vehicle: saline 114 % of control | dose: 0.5 mg/kg/injection, schedule: Q01DX006 (iv), vehicle: saline 105 % of control | dose: 0.5 mg/kg/injection, schedule: Q01DX Z (ip), vehicle: saline 104 % of control | dose: 0.5 mg/kg/injection, schedule: Q01DX Z (sc), vehicle: saline 96 % of control | dose: 0.5 mg/kg/injection, schedule: Q02DX004 (im), vehicle: saline 98 % of control | dose: 0.94 mg/kg/injection, schedule: Q01DX Z (ip), vehicle: saline 120 % of control | dose: 1.0 mg/kg/injection, schedule: Q01DX006 (iv), vehicle: saline 107 % of control | dose: 1.0 mg/kg/injection, schedule: Q01DX Z (ip), vehicle: saline 118 % of control | dose: 1.0 mg/kg/injection, schedule: Q01DX Z (sc), vehicle: saline 94 % of control | dose: 1.0 mg/kg/injection, schedule: Q02DX004 (im), vehicle: saline 105 % of control | dose: 2.0 mg/kg/injection, schedule: Q01DX006 (iv), vehicle: saline 100 % of control | dose: 2.0 mg/kg/injection, schedule: Q01DX Z (sc), vehicle: saline 105 % of control | dose: 2.0 mg/kg/injection, schedule: Q02DX004 (im), vehicle: saline 96 % of control | dose: 4.0 mg/kg/injection, schedule: Q01DX006 (iv), vehicle: saline 105 % of control | dose: 4.0 mg/kg/injection, schedule: Q02DX004 (im), vehicle: saline 107 % of control | dose: 8.0 mg/kg/injection, schedule: Q01DX006 (iv), vehicle: saline 116 % of control | dose: 8.0 mg/kg/injection, schedule: Q01DX Z (ip), vehicle: saline 121 % of control | dose: 15.0 mg/kg/injection, schedule: Q01DX Z (ip), vehicle: saline 86 % of control | dose: 15.0 mg/kg/injection, schedule: Q01DX Z (oral), vehicle: other 97 % of control | dose: 16.0 mg/kg/injection, schedule: Q01DX004 (im), vehicle: saline 123 % of control | dose: 16.0 mg/kg/injection, schedule: Q01DX006 (iv), vehicle: saline 107 % of control | dose: 16.0 mg/kg/injection, schedule: Q01DX Z (ip), vehicle: saline 107 % of control | dose: 16.0 mg/kg/injection, schedule: Q01DX Z (sc), vehicle: saline 120 % of control | dose: 30.0 mg/kg/injection, schedule: Q01DX Z (oral), vehicle: other 95 % of control | dose: 60.0 mg/kg/injection, schedule: Q01DX Z (oral), vehicle: other 104 % of control | dose: 62.5 mg/kg/injection, schedule: Q## X009 (oral), vehicle: saline 93 % of control | dose: 125.0 mg/kg/injection, schedule: Q## X010 (oral), vehicle: saline 112 % of control | dose: 128.0 mg/kg/injection, schedule: Q01DX004 (im), vehicle: saline 116 % of control | dose: 250.0 mg/kg/injection, schedule: Q## X010 (oral), vehicle: saline 111 % of control | dose: 500.0 mg/kg/injection, schedule: Q## X009 (oral), vehicle: saline 102 % of control

COc1ccc(NP2(=O)OCC(C)(N)CO2)cc1 (centres undefined)
inactive: [1] 91 % of control | [2] 96 % of control | [3] 91 % of control

CS(=O)(=O)OCCC#N
inactive: dose: 50.0 mg/kg/injection, schedule: Q01DX009 (ip), vehicle: saline 103 % of control | dose: 100.0 mg/kg/injection, schedule: Q01DX009 (ip), vehicle: saline 101 % of control | dose: 100.0 mg/kg/injection, schedule: Q04DX003 (ip), vehicle: alcohol 102 % of control | dose: 200.0 mg/kg/injection, schedule: Q04DX003 (ip), vehicle: alcohol 93 % of control

COc1ccc(OC)c(Br)c1
inactive: dose: 100.0 mg/kg/injection, schedule: Q01DX009 (ip), vehicle: saline with Tween-80 102 % of control | dose: 100.0 mg/kg/injection, schedule: Q04DX003 (ip), vehicle: saline with Tween-80 100 % of control | dose: 200.0 mg/kg/injection, schedule: Q01DX009 (ip), vehicle: saline with Tween-80 107 % of control | dose: 200.0 mg/kg/injection, schedule: Q04DX003 (ip), vehicle: saline with Tween-80 100 % of control | dose: 400.0 mg/kg/injection, schedule: Q01DX009 (ip), vehicle: saline with Tween-80 110 % of control | dose: 400.0 mg/kg/injection, schedule: Q04DX003 (ip), vehicle: saline with Tween-80 104 % of control

O=C(OC1CC2CC1C1CCCC21)c1ccc([N+](=O)[O-])cc1 (centres undefined)
inactive: dose: 50.0 mg/kg/injection, schedule: Q01DX001 (ip), vehicle: carboxymethylcellulose (CMC) 90 % of control | [1] 87 % of control | [4] 104 % of control | [2] 92 % of control | [5] 100 % of control | [3] 95 % of control | dose: 400.0 mg/kg/injection, schedule: Q01DX009 (ip), vehicle: Klucel (hydroxypropylcellulose) (HPC) 97 % of control

C[n+]1ccc(/C=C/c2ccc(Cl)c(Cl)c2)cc1
inactive: dose: 3.0 mg/kg/injection, schedule: Q01DX009 (ip), vehicle: Klucel (hydroxypropylcellulose) (HPC) 105 % of control | dose: 6.0 mg/kg/injection, schedule: Q01DX009 (ip), vehicle: Klucel (hydroxypropylcellulose) (HPC) 93 % of control | dose: 12.0 mg/kg/injection, schedule: Q01DX009 (ip), vehicle: Klucel (hydroxypropylcellulose) (HPC) 93 % of control | dose: 12.5 mg/kg/injection, schedule: Q04DX003 (ip), vehicle: Klucel (hydroxypropylcellulose) (HPC) 104 % of control

CCSCCO
inactive: [6] 92 % of control | [7] 102 % of control | dose: 400.0 mg/kg/injection, schedule: Q04DX003 (ip), vehicle: saline 100 % of control

Cc1nn[nH]n1
inactive: dose: 100.0 mg/kg/injection, schedule: Q01DX001 (ip), vehicle: saline 119 % of control | dose: 200.0 mg/kg/injection, schedule: Q01DX001 (ip), vehicle: saline 105 % of control | dose: 400.0 mg/kg/injection, schedule: Q01DX001 (ip), vehicle: saline 105 % of control

CCc1cccc[n+]1CC(=O)c1ccc(-c2ccccc2)cc1
inactive: dose: 100.0 mg/kg/injection, schedule: Q04DX003 (ip), vehicle: Klucel (hydroxypropylcellulose) (HPC) 86 % of control

NC(Cc1ccccc1Cl)C(=O)O (centres undefined)
inactive: dose: 50.0 mg/kg/injection, schedule: Q01DX009 (ip), vehicle: Klucel (hydroxypropylcellulose) (HPC) 102 % of control | dose: 75.0 mg/kg/injection, schedule: Q01DX001 (ip), vehicle: Klucel (hydroxypropylcellulose) (HPC) 86 % of control | [4] 102 % of control | dose: 150.0 mg/kg/injection, schedule: Q01DX001 (ip), vehicle: Klucel (hydroxypropylcellulose) (HPC) 99 % of control | [5] 102 % of control | dose: 300.0 mg/kg/injection, schedule: Q01DX001 (ip), vehicle: Klucel (hydroxypropylcellulose) (HPC) 96 % of control

CCCCCCCCCCCCOCC[N+](C/C=C/c1ccccc1)(CCO)CCO
inactive: dose: 6.25 mg/kg/injection, schedule: Q01DX009 (ip), vehicle: saline with Tween-80 93 % of control | dose: 12.5 mg/kg/injection, schedule: Q01DX009 (ip), vehicle: saline with Tween-80 95 % of control

Cc1cc(C)c(C(=O)O)cc1C
inactive: dose: 75.0 mg/kg/injection, schedule: Q01DX001 (ip), vehicle: saline 102 % of control | dose: 150.0 mg/kg/injection, schedule: Q01DX001 (ip), vehicle: saline 94 % of control | dose: 300.0 mg/kg/injection, schedule: Q01DX001 (ip), vehicle: saline 102 % of control

CCCCCOC(c1ccc2c(c1)OCO2)C(C)Br (centres undefined)
inactive: dose: 100.0 mg/kg/injection, schedule: Q04DX002 (ip), vehicle: saline 96 % of control | dose: 200.0 mg/kg/injection, schedule: Q04DX002 (ip), vehicle: saline 104 % of control | dose: 400.0 mg/kg/injection, schedule: Q04DX002 (ip), vehicle: saline 90 % of control

O=c1[nH]nc(/C=C/c2ccccc2)o1
inactive: dose: 50.0 mg/kg/injection, schedule: Q04DX003 (ip), vehicle: saline 103 % of control | [6] 95 % of control | [7] 97 % of control
